Data published in US5489609A (Zaidan Hoijn Seisan Kaihatsu Kagaku Kenkyusho, priority 1992, dated 1996).

Assays:
[1] = test system: Hepatopathy in mice (carbon tetrachloride); test: Anti-hepatitis test: hepatopathy in mice (carbon tetrachloride); type: in vivo, ddy strain male mice
Experimental: A group of 8 ddy strain male mice (weighing about 30 g) kept fasting from the previous day was treated by intraperitoneal injection of 0.5% carbon tetrachloride in olive oil at a dose of 0.6 ml and thereafter allowed free access to food. Three hours after the administration of carbon tetrachloride, the test compound suspended in powdered gum arabic was given to the animals orally at a dose of 200 mg/kg, and blood samples were drawn from the mice under anesthesia with ether through the abdominal descending aorta 24 hours after the administration of carbon tetrachloride. The collected blood was centrifuged at a rate of 3,000 rpm for 15 min, followed by measurement of the activities of aspartate transaminase (AST) and alanine transaminase (ALT) by means of the Lippie method.

[2] = test system: isolated liver cells of rats; test: Disorder of isolated liver cells (carbon tetrachloride vapor; ALT and AST leached out); type: cell-based; conditions: for ALT, mean ± S.D. / AST, mean ± S.D.: 37° C., 30 min, * p < 0.05
Experimental: Isolated liver cells of rats were prepared by means of the Segren's collagenase irrigation method, whereby a liver cell suspension was prepared to a concentration of […]. Into 2 ml of the suspension placed in an Erlenmeyer flask was put a test tube of about 0.5 ml capacity containing a 25% carbon tetrachloride solution in olive oil to saturate the reaction system with carbon tetrachloride vapor, and after the flask was tightly stoppered, preincubation was carried out at 37° C. for 30 min. One ml of a solution of the test compound in Hunk's solution was added to the suspension of liver cells, while 1 ml of Hunk's solution was added to a control. After the reaction was allowed to proceed at 37° C. for 30 min, a specifically determined volume of the reaction solution was pipetted out and immediately centrifuged under 500 g for 30 seconds, and ALT and AST leached out into the supernatant liquid were determined for activity by the Lippie method.

acetaldehyde toxicity = test: Protective activity against acetaldehyde toxicity (death rate within 24 hours); type: in vivo, Rats; conditions: for Death rate / No. of dead animals (n/10): 30 min before acetaldehyde 1,200 mg/kg, 24 h
Experimental: Rats kept fasting with a supply of drinking water were weighed and divided into groups in such a manner that the mean body weight was uniform among the groups, with each group consisting of 10 heads. The rats were given acetaldehyde orally at a dose of 1,200 mg/kg, and the death rate within 24 hours was determined, wherein the test drug substances were administered orally 30 min before the application of acetaldehyde, with the vehicle (0.5% aqueous sodium carboxymethylcellulose) alone being given to a control group.

[3] = test system: Stomach injury with hydrochloric acid/ethanol; test: Anti-ulcer test: stomach injury with hydrochloric acid/ethanol; type: in vivo, male rats of KBL Wistar strain
Experimental: The rats were divided into groups each consisting of 8 heads in such a way that their mean body weights were nearly uniform among the groups, treated by oral administration of hydrochloric acid/ethanol (0.15 mole hydrochloric acid solution in 80% ethanol) at a dose of 5 ml/kg body weight and sacrificed through cervical vertebrae dislocation 1 hour after administration. The stomachs were removed and treated with formalin, and individual ulcers formed in the glandular portion of the stomach were measured in length (mm), with the measured ulcer lengths summed for each rat. The test compound was suspended in a 0.5% aqueous solution of sodium carboxymethylcellulose, and the suspension was given to the test group orally at a dose of 10 ml/kg body weight 30 min before administration of hydrochloric acid/ethanol, whereas the vehicle (0.5% aqueous sodium carboxymethyl-cellulose) alone was applied to a control group.

[4] = test system: Stomach injury through water-immersion constraint stress; test: Anti-ulcer test: stomach injury through water-immersion constraint stress; type: in vivo, male rats of KBL Wistar strain
Experimental: The rats were divided into groups each consisting of 8 heads in such a way that their mean body weights were nearly uniform among the groups, stress-loaded by soaking the animals placed in a stress cage of Univ. of Tokyo type in a water tank at 23° C. up to the xiphoid and then sacrificed through cervical vertebrae dislocation 7.5 hours later. The stomachs were removed and treated with formalin, and individual ulcers formed in the glandular portion of the stomach were measured in length (mm), with the measured ulcer lengths being summed for each rat. The test compound, suspended in a 0.5% aqueous solution of sodium carboxymethylcellulose, was given to the test group orally at a dose of 10 ml/kg body weight 30 min before the water-soaking constraint, whereas the vehicle alone was applied to a control group.

[5] = test system: Rats of KBL Wistar strain; test: Acute toxicity test; type: in vivo; conditions: 7 day period
Experimental: Rats of KBL Wistar strain (weighing about […]), divided into groups each consisting of 3 heads, were treated through oral administration of the test compound suspended in powder gum arabic, followed by observation for any abnormalities over a 7 day period to find the number of dead animals.

[6] = Pharmacological tests (general statement on anti-hepatitis, liver function and anti-ulcer activity); type: in vivo; conditions: in words
[7] = 200 mg/kg orally 3 h after carbon tetrachloride, blood 24 h after carbon tetrachloride, * p < 0.05
[8] = conc. of test soln. 0.0125 mg/dl
[9] = conc. of test soln. 0.025 mg/dl
[10] = 50 mg/kg orally, vs Vehicle No. 1

NCCS(=O)(=O)[O-].NCCS(=O)(=O)[O-].[Zn+2] [TTZ, Bis(2-aminoethanesulfonic acid)zinc]
ALT, mean ± S.D. [1, 7]: 8899.4 ± 927.9 IU
AST, mean ± S.D. [1, 7]: 7256.9 ± 1464.7 IU
suppressory activity (hepatopathy in mice) ([1]; 200 mg/kg orally, in words): significant suppressory activity equal to that of FTZ
ALT, mean ± S.D. [2, 8]: 944.7 ± 61.7 IU
AST, mean ± S.D. [2, 8]: 327.9 ± 36.6 IU
ALT, mean ± S.D. [2, 9]: 637.2 ± 93.7 IU
AST, mean ± S.D. [2, 9]: 125.7 ± 48.2 IU
ALT, mean ± S.D. ([2]; conc. of test soln. 0.05 mg/dl): 649.1 ± 42.4 IU
AST, mean ± S.D. ([2]; conc. of test soln. 0.05 mg/dl): 68.2 ± 7.5 IU
ALT, mean ± S.D. ([2]; conc. of test soln. 0.1 mg/dl): 525.1 ± 26.0 IU
AST, mean ± S.D. ([2]; conc. of test soln. 0.1 mg/dl): 44.3 ± 11.1 IU
suppressory activity (isolated liver cells) ([2]; in words): suppressory activity equal to that of FTZ but clearly superior to that of 2-aminoethanesulfonic acid alone
Death rate (acetaldehyde toxicity; 150 mg/kg orally): 30%
No. of dead animals (n/10) (acetaldehyde toxicity; 150 mg/kg orally): 3/10
Death rate (acetaldehyde toxicity; 300 mg/kg orally): 0%
No. of dead animals (n/10) (acetaldehyde toxicity; 300 mg/kg orally): 0/10
protective activity against the lethal toxicity of acetaldehyde (acetaldehyde toxicity; in words): distinct protective activity against the lethal toxicity of acetaldehyde at lower doses than FTZ, which activity was shown to be more potent than that of 2-aminoethanesulfonic acid
Incidence of ulcer ([3]; 12.5 mg/kg orally): 8/8
Ulcer coefficient (mm) mean ± S.E. ([3]; 12.5 mg/kg orally): 32.2 ± 4.9 mm
Suppression % ([3]; 12.5 mg/kg orally, vs Vehicle No. 3): 11.8%
Incidence of ulcer ([3]; 25 mg/kg orally): 8/8
Ulcer coefficient (mm) mean ± S.E. ([3]; 25 mg/kg orally): 24.6 ± 8.8 mm
Suppression % ([3]; 25 mg/kg orally, vs Vehicle No. 2): 63.3%
Incidence of ulcer ([3]; 50 mg/kg orally): 5/8
Ulcer coefficient (mm) mean ± S.E. ([3]; 50 mg/kg orally, * P < 0.01): 2.2 ± 1.1 mm
Suppression % [3, 10]: 96.3%
suppressory activity in the antiulcer test ([3]; in words, refers to both anti-ulcer tests): improved suppressory activity in the antiulcer test, as compared with FTZ used as a control
UD50 (mg/kg) (95% C.L.) ([3]; oral, 30 min before hydrochloric acid/ethanol): 22.8 mg/kg
Incidence of ulcer ([4]; 50 mg/kg orally): 8/8
Ulcer coefficient (mm) mean ± S.E. ([4]; 50 mg/kg orally): 19.9 ± 4.6 mm
Suppression % [4, 10]: 37.6%
Incidence of ulcer ([4]; 100 mg/kg orally): 8/8
Ulcer coefficient (mm) mean ± S.E. ([4]; 100 mg/kg orally, * p < 0.01): 9.8 ± 2.3 mm
Suppression % ([4]; 100 mg/kg orally, vs Vehicle No. 2): 57.2%
Incidence of ulcer ([4]; 150 mg/kg orally): 8/8
Ulcer coefficient (mm) mean ± S.E. ([4]; 150 mg/kg orally, ** p < 0.01): 7.6 ± 1.4 mm
Suppression % ([4]; 150 mg/kg orally, vs Vehicle No. 3): 78.1%
UD50 (mg/kg) (95% C.L.) ([4]; oral, 30 min before water-soaking constraint): 72.8 mg/kg
Nd/No (No. of dead animals / total No.) ([5]; 1,250 mg/kg oral): 0/3
Nd/No (No. of dead animals / total No.) ([5]; 2,500 mg/kg oral): 0/3
Nd/No (No. of dead animals / total No.) ([5]; 5,000 mg/kg oral): 0/3
death of animals ([5]; doses up to 5,000 mg/kg oral, in words): did not cause any animal to die
anti-hepatitis, liver function improving and anti-ulcer activity [6]: more markedly potent anti-ulcer activity as well as comparable anti-hepatitis and liver function improving activities
